Counter-ions that a name gives are not always drawn.
Tests used:
[1] = target: T1, human collagenase-1 catalytic domain (Homo sapiens, UniProt P03956); test: MMP inhibition in vitro, human collagenase-1; type: biochemical; settings: MCA-Pro-Leu-Gly-Leu-DPA-Ala-Arg-NH2 hydrolysis at 37° C.; read-out: Collagenase-I IC50
T1 construct: the collagenase-1 catalytic domain was released by treatment with 1 mM of aminophenylmercuric acetate (APMA); ubiquitin (cleaved yes); made in house; host or cells: E. coli
T1 sequence (P03956 100-269 limits assumed): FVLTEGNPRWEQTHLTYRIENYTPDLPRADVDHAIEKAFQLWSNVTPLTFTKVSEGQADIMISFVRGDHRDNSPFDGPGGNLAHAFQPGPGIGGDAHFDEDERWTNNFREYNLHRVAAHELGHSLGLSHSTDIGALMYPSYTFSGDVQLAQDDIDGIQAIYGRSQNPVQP
Protocol: The catalytic domain of human collagenase-1 was expressed as a fusion protein with ubiquitin in E. Coli as described in Gehring, E. R. et al., J. Biol. Chem., 270, 22507, (1995). After purification of the fusion protein, the collagenase-1 catalytic domain was released by treatment with 1 mM of aminophenylmercuric acetate (APMA) for 1 hour at 37° C. and then purified by zinc chelate chromatography.
(§1) The matrix metalloprotease inhibitory activity of compounds of this invention in vitro was determined based on the hydrolysis of MCA-Pro-Leu-Gly-Leu-DPA-Ala-Arg-NH2 (Bachem, Inc.) at 37° C. as described in Knight, C. G., et al., FEBS Lett., 296, 263-266 (1992).
(§2) The matrix metalloprotease enzyme was diluted with assay buffer (50 mM Tricine pH 7.5, 200 mM NaCl, 10 mM CaCl2, and 0.005% Brij-35) containing 10 μmole of above substrate dissolved in DMSO. Compounds of the invention dissolved in DMSO or only DMSO (control samples) were added such that the final DMSO concentration in all assays was 2.5%. The fluorescence changes were monitored with a Perkin-Elmer LS-50B flourimeter using an excitation wavelength of 328 nm and an emission wavelength of 393 nm.

[2] = target: T2, human collagenase-3 catalytic domain (Homo sapiens, UniProt P45452); test: MMP inhibition in vitro, human collagenase-3; type: biochemical; settings: MCA-Pro-Leu-Gly-Leu-DPA-Ala-Arg-NH2 hydrolysis at 37° C.; read-out: Collagenase-III IC50
T2 construct: After purification, the catalytic domain was released by treatment with 1 mM APMA for 1 hour at 37° C; ubiquitin (N, cleaved yes); made in house; host or cells: E. coli
Protocol: The propeptide and catalytic domain portion of human collagcenase-3 was expressed in E. Coli as an N-terminal fusion protein with ubiquitin. After purification, the catalytic domain was released by treatment with 1 mM APMA for 1 hour at 37° C., and then purified by zinc chelate chromatography.
as §1, §2

Structure (SMILES)	melting point	IC50 [1]	IC50 [2]
CC(NS(=O)(=O)N1CCc2c([nH]c3ccccc23)C1)C(=O)[O-].[Na+] (stereo not shown)	209 to 211 °C (dec.)	–	–
COCCN(CC(=O)NO)S(=O)(=O)N1CCN(c2ccc(Cl)cc2)CC1 (as salt: TFA) [compound 16]	54.1 to 57.7 °C	–	–
O=C(NO)C1CCCCN1S(=O)(=O)N1CCC(c2c[nH]c3ccc(F)cc23)CC1 (racemic) [compound 254]	–	> 50000 nM	181 nM
CC(=O)N1CCN(S(=O)(=O)N2CCC(C(=O)c3ccc(Cl)cc3)CC2)C(C(=O)NO)C1 (racemic) [compound 255]	–	120 nM	0.19 nM
O=C(NO)C1CCCCN1S(=O)(=O)N1CCC(c2c[nH]c3cc(Cl)ccc23)CC1 (racemic) [compound 256]	143 to 151 °C	26000 nM	33 nM
O=CN1CCN(S(=O)(=O)N2CCC(C(=O)c3ccc(Cl)cc3)CC2)C(C(=O)NO)C1 (racemic) [compound 262]	–	88 nM	0.13 nM
O=C(NO)C1CCCCN1S(=O)(=O)N1CCC(c2noc3cc(F)ccc23)CC1 (racemic) [compound 286]	145.8 to 146.9 °C	29 nM	0.063 nM
O=C(NO)C1CCCCN1S(=O)(=O)N1CC=C(c2ccc(Cl)cc2)CC1 (racemic) [compound 375, N-hydroxy-1-[4-(4-chlorophenyl)-1,2,3,6-tetrahydropyridine-1-sulfonyl]piperidine-2-(RS)-carboxamide]	137.8 to 138.1 °C	–	–
Cc1cc(C2=CCN(S(=O)(=O)N3CCN(C(=O)OCc4ccccc4)CC3C(=O)NO)CC2)ccc1F (racemic) [compound 381, N-hydroxy-4-benzyloxycarbonyl-1-[4-(4-fluoro-3-methylphenyl)-1,2,3,6-tetrahydropyridine-1-sulfonyl]piperazine-2-(RS)-carboxamide]	67 to 70 °C	–	–
CC(C)[C@H](C(=O)NO)N(Cc1ccccc1)S(=O)(=O)N1CCCCC1 [compound 1, N-hydroxy-2-(R)-[benzyl-(piperdine-1-sulfonyl)amino]-3-methybutyramide]	80.6 to 85.7 °C	550 nM	660 nM
COCCN(CC(=O)NO)S(=O)(=O)N1CCN(c2ccc(Cl)cc2)CC1 [compound 16]	–	22000 nM	21 nM
O=C(CNS(=O)(=O)N1CCN(c2cccc(Cl)c2)CC1)NO [compound 33, N-hydroxy-2-{[4-(3-chlorophenyl)piperazine-1-sulfonyl]amino}acetamide]	138.1 to 138.6 °C	–	–
CC(C)[C@@H](NS(=O)(=O)N1CCN(c2ccc(Cl)cn2)CC1)C(=O)NO [compound 50, N-hydroxy-2-(R)-{[4-(5-chloropyridin-2yl)piperazine-1-sulfonyl]amino}-3-methylbutyramide]	146.7 to 147 °C	220 nM	1.3 nM
C[C@@H](NS(=O)(=O)N1CCC(Oc2ccc(Cl)cc2)CC1)C(=O)NO [compound 57, N-hydroxy-2-(R)-{[4-(4-chlorophenoxy)piperidine-1-sulfonyl]amino}propionamide]	93 to 94 °C	–	–
CC(C)(C)[C@@H](NS(=O)(=O)N1CCN(c2ccc(Cl)cc2)CC1)C(=S)NO [compound 62, N-hydroxy-2-(R)-{[4-(4-chlorophenyl)piperazine-1-sulfonyl]amino}-3-methyl-3-methylthiobutyramide]	158.5 to 159.6 °C	–	–
O=C(NO)[C@@H](Cc1ccc(O)cc1)NS(=O)(=O)N1CCN(c2ccc(Cl)cn2)CC1 [compound 103, N-hydroxy-2-(R)-{[4-(5-chloropyridin-2-yl)piperazine-1-sulfonyl]amino}-3-(4-hydroxyphenyl)propionamide]	142 °C	–	–
CC(C)[C@H](C(=O)NO)N(CCCc1cccnc1)S(=O)(=O)N1CCC(Oc2ccc(Br)cc2)CC1 [compound 105]	–	129 nM	0.59 nM
C[C@H](NS(=O)(=O)N1CCC(C(=O)c2ccc(Cl)cc2)CC1)C(=O)NO [compound 125, N-hydroxy-2-(S)-{[4-(4-chlorobenzoyl)piperidine-1-sulfonyl]amino}propionamide]	201.2 to 201.8 °C	–	–
CC(C)[C@@H](NS(=O)(=O)N1CCC(c2ncc(-c3ccccc3)s2)CC1)C(=O)NO [compound 136, N-hydroxy-2-(R)-{[4-(5-phenylthiazol-2-yl)piperidine-1-sulfonyl]amino}-3-methylbutyramide]	120 to 122.1 °C	–	–

Structure (SMILES)	melting point	IC50 [1]	IC50 [2]
C[C@@H](NS(=O)(=O)N1CCC(C(=O)c2ccc(Oc3ccccc3)cc2)CC1)C(=O)NO [compound 148, N-hydroxy-2-(R)-{[4-(4-phenoxybenzoyl)piperidine-1-sulfonyl]amino}propionamide]	202 to 205 °C	–	–
C[C@@H](NS(=O)(=O)N1CCN(C(=O)Nc2ccc(Cl)cc2)CC1)C(=O)NO [compound 177, N-hydroxy-2-(R)-{[4-(4-chlorophenylaminocarbonyl)piperazine-1-sulfonyl]amino}propionamide]	–	9300 nM	1.6 nM
CC(C)[C@@H](NS(=O)(=O)N1CCC(Oc2cccc(Cl)n2)CC1)C(=O)NO [compound 183, N-hydroxy-2-(R)-{[4-(6-chloropyridin-2-yloxy)piperidine-1-sulfonyl]amino}-3-methylbutyramide]	81 to 96 °C	–	–
O=C(NO)[C@H](NS(=O)(=O)N1CCC(Oc2ccc(Cl)cn2)CC1)C1CCCCC1 [compound 207, N-hydroxy-2-(R)-{[4-(5-chloropyridin-2-yloxy)piperidine-1-sulfonyl]amino}-2-cyclohexylacetamide]	171.1 to 171.4 °C	–	–
C[C@@H](NS(=O)(=O)N1CCN(C(=O)Nc2ccc(Oc3ccccc3)cc2)CC1)C(=O)NO [compound 213, N-hydroxy-2-(R)-{[4-(4-phenoxyphenylaminocarbonyl)piperazine-1-sulfonyl]amino}propionamide]	119 to 122 °C	–	–
O=C(NO)[C@H](NS(=O)(=O)N1CCC(c2ccc(F)cc2)CC1)c1ccc(F)cc1 [compound 230, N-hydroxy-2-(R)-{[4-(4-fluorophenyl)piperidine-1-sulfonyl]amino}-2-(4-fluorophenyl)acetamide]	90 to 92 °C	–	–
O=C(NO)[C@H]1CCCCN1S(=O)(=O)N1CCCC1 [compound 232, N-hydroxy-1-(pyrrolidine-1-sulfonyl)piperidine-2-(R)-carboxamide]	142 to 144 °C	–	–
N#Cc1ccc2[nH]cc(C3CCN(S(=O)(=O)N4CCCC[C@@H]4C(=O)NO)CC3)c2c1 [compound 294]	–	> 50000 nM	340 nM
CN(C)C(=O)N1CCN(S(=O)(=O)N2CCC(C(=O)c3ccc(Cl)cc3)CC2)[C@@H](C(=O)NO)C1 [compound 298]	–	130 nM	0.2 nM
CN(C)S(=O)(=O)N1CCN(S(=O)(=O)N2CCC(C(=O)c3ccc(Cl)cc3)CC2)[C@@H](C(=O)NO)C1 [compound 315]	–	–	0.1 nM
O=C(NO)C1(NS(=O)(=O)N2CCC(Oc3ccccc3)CC2)CCCC1 [compound 337, N-hydroxy-1-{[(4-phenoxy)piperidine-1-sulfonyl]amino}cyclopentane-1-carboxamide]	124.5 to 125.5 °C	–	–
O=C(NO)C1(NS(=O)(=O)N2CCN(c3ccc(Cl)cc3)CC2)CCOCC1 [compound 339, N-hydroxy-4-{[4-(4-chlorophenyl)piperazine-1-sulfonyl]amino}tetrahydropyran-4-carboxamide]	192.5 to 192.7 °C	–	–
O=C(NO)C1(NS(=O)(=O)N2CCN(c3ccc(Cl)cn3)CC2)CCCCC1 [compound 342]	–	170 nM	2.1 nM
CC(C)(NS(=O)(=O)N1CCC(C(=O)c2ccc(Cl)cc2)CC1)C(=O)NO [compound 351, N-hydroxy-2-{[4-(4-chlorobenzoyl)piperidine-1-sulfonyl]amino}-2-methylpropionamide]	185.7 to 186.7 °C	–	–
CN(Cc1ccccc1)S(=O)(=O)N(CC(=O)NO)Cc1ccccc1 [compound 355]	–	650 nM	56 nM
C[C@@H](NS(=O)(=O)N1CCN(c2ccc(Cl)cc2)CC1)C(=O)O [compound 414]	–	> 50000 nM	3400 nM
CN(Cc1ccccc1)S(=O)(=O)N(CC(=O)O)Cc1ccccc1 [compound 430]	–	2200 nM	890 nM
C[C@H](C(=O)O)N(Cc1ccccc1)S(=O)(=O)NCc1ccccc1 [compound 431]	–	> 50000 nM	6500 nM

— patent US6376506B1, “Sulfamide-metalloprotease inhibitors” (Syntex (U.S.A.) LLC, priority 1997, dated 2002)
